Reference: ChEMBL document CHEMBL6153032, “Discovery of a highly potent, N-terminal domain-targeting degrader of AR-FL/AR-V7 for the treatment of prostate cancer” (Eur J Med Chem, 2025)
Activity calls are given as the source filed them. No cut-off for these calls is given here.

Key:
CWR22R [1] = assay: Antitumor activity against human 22Rv1 cells xenografted in BALB/c nude mouse assessed as redcution in tumor volume at 10 mg/kg, iv administered once daily for 21 days; format: functional, organism-based; conditions: time 21.0 day
[2] = target: T1, Protein cereblon/Androgen receptor (Homo sapiens, UniProt P10275+Q96SW2); assay: PROTAC activity at full length Androgen receptor/CRBN in human 22Rv1 cells assessed as induction of full length Androgen receptor degradation at 1 uM incubated for 24 hrs by Western blot analysis relative to control; format: cell-based
Target sequence in this assay (P10275 whole entry, looked up): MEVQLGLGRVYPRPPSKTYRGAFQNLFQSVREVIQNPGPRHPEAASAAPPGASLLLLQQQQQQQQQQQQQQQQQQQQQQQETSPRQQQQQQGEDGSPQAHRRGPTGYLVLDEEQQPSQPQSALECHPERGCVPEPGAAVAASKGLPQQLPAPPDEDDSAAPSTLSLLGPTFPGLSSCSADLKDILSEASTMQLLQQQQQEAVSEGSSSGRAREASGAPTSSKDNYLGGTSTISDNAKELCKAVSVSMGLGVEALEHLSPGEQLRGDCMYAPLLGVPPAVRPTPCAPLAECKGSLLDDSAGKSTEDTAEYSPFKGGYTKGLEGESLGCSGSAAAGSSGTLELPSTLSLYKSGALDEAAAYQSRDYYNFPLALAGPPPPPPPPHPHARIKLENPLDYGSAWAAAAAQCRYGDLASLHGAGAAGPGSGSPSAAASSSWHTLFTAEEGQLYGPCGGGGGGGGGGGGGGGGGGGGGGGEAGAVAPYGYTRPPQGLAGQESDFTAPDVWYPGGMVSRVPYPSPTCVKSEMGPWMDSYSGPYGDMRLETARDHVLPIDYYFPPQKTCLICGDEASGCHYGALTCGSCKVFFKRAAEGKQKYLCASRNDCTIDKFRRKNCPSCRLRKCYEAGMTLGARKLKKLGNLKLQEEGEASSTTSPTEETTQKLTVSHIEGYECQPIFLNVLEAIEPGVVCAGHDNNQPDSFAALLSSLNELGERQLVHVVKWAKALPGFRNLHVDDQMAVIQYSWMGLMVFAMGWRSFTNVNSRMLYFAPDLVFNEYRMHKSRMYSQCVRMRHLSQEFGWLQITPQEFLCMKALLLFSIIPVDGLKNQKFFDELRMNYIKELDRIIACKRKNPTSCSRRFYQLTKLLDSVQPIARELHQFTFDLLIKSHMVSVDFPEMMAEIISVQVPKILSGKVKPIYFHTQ
Target sequence in this assay (Q96SW2 whole entry, looked up): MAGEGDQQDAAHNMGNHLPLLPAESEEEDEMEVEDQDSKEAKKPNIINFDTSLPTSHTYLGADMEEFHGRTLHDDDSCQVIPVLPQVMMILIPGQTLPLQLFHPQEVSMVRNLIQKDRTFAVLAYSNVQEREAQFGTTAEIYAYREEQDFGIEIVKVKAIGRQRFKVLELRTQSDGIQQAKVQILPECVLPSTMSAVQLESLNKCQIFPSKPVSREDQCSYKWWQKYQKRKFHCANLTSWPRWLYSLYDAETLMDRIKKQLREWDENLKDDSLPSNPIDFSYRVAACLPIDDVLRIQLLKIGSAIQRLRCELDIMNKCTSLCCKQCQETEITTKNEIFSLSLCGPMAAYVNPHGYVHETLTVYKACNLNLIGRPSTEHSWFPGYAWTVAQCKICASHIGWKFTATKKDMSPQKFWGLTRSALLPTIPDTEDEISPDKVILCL

[3] = tested on: Protein cereblon/Androgen receptor (Homo sapiens), P10275+Q96SW2 [UNDEFINED MUTATION]; assay: PROTAC activity at AR-V7/CRBN in human 22Rv1 cells assessed as induction of AR-V7 degradation at 5 uM incubated for 24 hrs by Western blot analysis relative to control; format: cell-based; conditions: CWR22R
Protein cereblon/Androgen receptor (Homo sapiens), P10275+Q96SW2 [UNDEFINED MUTATION], sequence (P10275 whole entry, looked up, stated change not applied): as the sequence (P10275 whole entry, looked up) above
Protein cereblon/Androgen receptor (Homo sapiens), P10275+Q96SW2 [UNDEFINED MUTATION], sequence (Q96SW2 whole entry, looked up, stated change not applied): as the sequence (Q96SW2 whole entry, looked up) above

[4] = target: T1, Protein cereblon/Androgen receptor; assay: PROTAC activity at full length Androgen receptor/CRBN in human 22Rv1 cells assessed as reduction in full length androgen receptor level incubated for 24 hrs by Western blot analysis; format: cell-based
[5] = target: T1, Protein cereblon/Androgen receptor; assay: PROTAC activity at full length Androgen receptor/CRBN in human 22Rv1 cells assessed as reduction in full length androgen receptor level at 1 uM by Western blot analysis; format: cell-based; conditions: time 6.0 hrs
Target sequence in this assay (P10275 whole entry, looked up): as the sequence (P10275 whole entry, looked up) above
Target sequence in this assay (Q96SW2 whole entry, looked up): as the sequence (Q96SW2 whole entry, looked up) above

[6] = tested on: Protein cereblon/Androgen receptor (Homo sapiens), P10275+Q96SW2 [UNDEFINED MUTATION]; assay: PROTAC activity at AR-V7/CRBN in human 22Rv1 cells assessed as reduction in AR-V7 level at 1 uM by Western blot analysis; format: cell-based; conditions: CWR22R, time 6.0 hrs
[7] = target: T1, Protein cereblon/Androgen receptor; assay: PROTAC activity at full length Androgen receptor/CRBN in human 22Rv1 cells assessed as reduction in full length androgen receptor level at 100 nM incubated for 24 hrs by immunofluorescence analysis; format: cell-based
Target sequence in this assay (P10275 whole entry, looked up): as the sequence (P10275 whole entry, looked up) above
Target sequence in this assay (Q96SW2 whole entry, looked up): as the sequence (Q96SW2 whole entry, looked up) above

CWR22R [8] = assay: Downregulation of TMPRSS2 mRNA level in human 22Rv1 cells incubated for 24 hrs by qRT-PCR analysis; format: functional, cell-based; conditions: dose 100-500 nM
CWR22R [9] = assay: Downregulation of KLK2 mRNA level in human 22Rv1 cells incubated for 24 hrs by qRT-PCR analysis; format: functional, cell-based; conditions: dose 100-500 nM
[10] = target: T1, Protein cereblon/Androgen receptor; assay: PROTAC activity at full length Androgen receptor/CRBN in human 22Rv1 cells assessed as induction of full length Androgen receptor degradation at 0.1 uM incubated for 24 hrs in presence of CHX by Western blot analysis; format: cell-based
Target sequence in this assay (P10275 whole entry, looked up): as the sequence (P10275 whole entry, looked up) above
Target sequence in this assay (Q96SW2 whole entry, looked up): as the sequence (Q96SW2 whole entry, looked up) above

[11] = tested on: Protein cereblon/Androgen receptor (Homo sapiens), P10275+Q96SW2 [UNDEFINED MUTATION]; assay: PROTAC activity at AR-V7/CRBN in human 22Rv1 cells assessed as induction of AR-V7 degradation at 0.1 uM incubated for 24 hrs in presence of CHX by Western blot analysis; format: cell-based; conditions: CWR22R
[12] = target: T1, Protein cereblon/Androgen receptor; assay: PROTAC activity at full length Androgen receptor/CRBN in human 22Rv1 cells assessed as induction of full length androgen receptor degradation at 100 nM incubated for 12 hrs in presence of Thalidomide by Western blot analysis; format: cell-based
Target sequence in this assay (P10275 whole entry, looked up): as the sequence (P10275 whole entry, looked up) above
Target sequence in this assay (Q96SW2 whole entry, looked up): as the sequence (Q96SW2 whole entry, looked up) above

[13] = target: T1, Protein cereblon/Androgen receptor; assay: PROTAC activity at full length Androgen receptor/CRBN in human 22Rv1 cells assessed as induction of full length androgen receptor degradation at 100 nM incubated for 12 hrs in presence of MLN4924 by Western blot analysis; format: cell-based
Target sequence in this assay (P10275 whole entry, looked up): as the sequence (P10275 whole entry, looked up) above
Target sequence in this assay (Q96SW2 whole entry, looked up): as the sequence (Q96SW2 whole entry, looked up) above

[14] = tested on: Protein cereblon/Androgen receptor (Homo sapiens), P10275+Q96SW2 [UNDEFINED MUTATION]; assay: PROTAC activity at AR-V7/CRBN in human 22Rv1 cells assessed as induction of AR-V7 degradation at 100 nM incubated for 12 hrs in presence of MG132 by Western blot analysis; format: cell-based; conditions: CWR22R
[15] = Antiproliferative activity against human MCF-10A cells assessed as cell viability incubated for 4 days by CCK-8 assay; format: toxicity, cell-based
[16] = target: Protein cereblon/Estrogen receptor (Homo sapiens) (UniProt P03372+Q96SW2); assay: PROTAC activity at CRBN/ERalpha in human 22Rv1 cells assessed as reduction in ERalpha protein level at 0.01 to 5 uM measured after 24 hrs by Western blot analysis; format: cell-based; conditions: dose 0.01-5 µM
Protein cereblon/Estrogen receptor (Homo sapiens), sequence (P03372 whole entry, looked up): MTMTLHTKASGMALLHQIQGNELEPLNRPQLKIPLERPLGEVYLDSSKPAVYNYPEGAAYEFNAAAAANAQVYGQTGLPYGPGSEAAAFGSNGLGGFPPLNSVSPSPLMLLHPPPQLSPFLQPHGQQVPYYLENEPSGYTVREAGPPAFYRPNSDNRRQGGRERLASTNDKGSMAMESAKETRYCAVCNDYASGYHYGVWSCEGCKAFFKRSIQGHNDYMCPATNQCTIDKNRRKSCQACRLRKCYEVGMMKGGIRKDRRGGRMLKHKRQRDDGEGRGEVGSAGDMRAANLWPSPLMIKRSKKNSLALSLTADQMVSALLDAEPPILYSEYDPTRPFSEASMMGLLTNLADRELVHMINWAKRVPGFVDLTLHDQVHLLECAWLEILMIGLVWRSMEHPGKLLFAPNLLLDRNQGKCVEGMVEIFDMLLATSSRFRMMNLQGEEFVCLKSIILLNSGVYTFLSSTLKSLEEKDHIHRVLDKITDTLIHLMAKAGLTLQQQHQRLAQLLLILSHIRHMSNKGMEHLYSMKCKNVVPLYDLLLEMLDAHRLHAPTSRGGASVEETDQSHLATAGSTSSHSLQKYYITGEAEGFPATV
Protein cereblon/Estrogen receptor (Homo sapiens), sequence (Q96SW2 whole entry, looked up): as the sequence (Q96SW2 whole entry, looked up) above

CWR22R [17] = assay: Inhibition of colony formation in human 22Rv1 cells assessed as reduction in colony formation incubated for 14 days; format: functional, cell-based; conditions: dose 1-100 nM, time 14.0 day
CWR22R [18] = assay: Induction of apoptosis in human 22Rv1 cells assessed as viable cells at 100 nM incubated for 48 hrs by Annexin V/FITC staining based flow cytometry analysis (reference value: 94.49%); format: functional; conditions: read-out: Activity
CWR22R [19] = assay: Induction of apoptosis in human 22Rv1 cells assessed as necrotic cells at 100 nM incubated for 48 hrs by Annexin V/FITC staining based flow cytometry analysis (reference value: 2.31 %); format: functional
CWR22R [20] = assay: Induction of apoptosis in human 22Rv1 cells assessed as early apoptotic cells at 500 nM incubated for 48 hrs by Annexin V/FITC staining based flow cytometry analysis (reference value: 2.08 %); format: functional
CWR22R [21] = assay: Induction of cell cycle arrest in human 22Rv1 cells assessed as accumulation of cells at G0/G1 phase at 100 nM incubated for 24 hrs by PI staining based flow cytometry analysis (reference value: 62.66%); format: functional
CWR22R [22] = assay: Induction of cell cycle arrest in human 22Rv1 cells assessed as accumulation of cells at G2/M phase at 100 nM incubated for 24 hrs by PI staining based flow cytometry analysis (reference value: 8.61%); format: functional
CWR22R [23] = assay: Induction of cell cycle arrest in human 22Rv1 cells assessed as accumulation of cells at G0/G1 phase at 500 nM incubated for 24 hrs by PI staining based flow cytometry analysis (reference value: 62.66%); format: functional
[24] = Metabolic stability in mouse liver microsome assessed as half life measured upto 45 mins by LC/MS analysis; format: ADME; conditions: liver microsomes
[25] = Metabolic stability in rat liver microsome assessed as intrinsic clearance measured upto 45 mins by LC/MS analysis; format: ADME; conditions: liver microsomes, read-out: CLH
[26] = Metabolic stability in human liver microsome assessed as intrinsic clearance measured upto 45 mins by LC/MS analysis; format: ADME; conditions: liver microsomes, read-out: CLH
[27] = Metabolic stability in human liver microsome assessed as half life measured upto 45 mins by LC/MS analysis; format: ADME; conditions: liver microsomes
[28] = Half life in Sprague-Dawley rat 2 mg/kg, iv by LC-MS/MS analysis; format: ADME, organism-based; conditions: in vivo
[29] = Cmax in Sprague-Dawley rat 2 mg/kg, iv by LC-MS/MS analysis; format: ADME, organism-based; conditions: in vivo
[30] = MRT (0 to t) in Sprague-Dawley rat 2 mg/kg, iv by LC-MS/MS analysis; format: ADME, organism-based; conditions: in vivo
[31] = Initial plasma concentration in Sprague-Dawley rat 2 mg/kg, iv by LC-MS/MS analysis; format: ADME, organism-based
[32] = target: Voltage-gated inwardly rectifying potassium channel KCNH2 (Homo sapiens, UniProt Q12809); assay: Inhibition of hERG; format: toxicity
Voltage-gated inwardly rectifying potassium channel KCNH2, sequence (Q12809 whole entry): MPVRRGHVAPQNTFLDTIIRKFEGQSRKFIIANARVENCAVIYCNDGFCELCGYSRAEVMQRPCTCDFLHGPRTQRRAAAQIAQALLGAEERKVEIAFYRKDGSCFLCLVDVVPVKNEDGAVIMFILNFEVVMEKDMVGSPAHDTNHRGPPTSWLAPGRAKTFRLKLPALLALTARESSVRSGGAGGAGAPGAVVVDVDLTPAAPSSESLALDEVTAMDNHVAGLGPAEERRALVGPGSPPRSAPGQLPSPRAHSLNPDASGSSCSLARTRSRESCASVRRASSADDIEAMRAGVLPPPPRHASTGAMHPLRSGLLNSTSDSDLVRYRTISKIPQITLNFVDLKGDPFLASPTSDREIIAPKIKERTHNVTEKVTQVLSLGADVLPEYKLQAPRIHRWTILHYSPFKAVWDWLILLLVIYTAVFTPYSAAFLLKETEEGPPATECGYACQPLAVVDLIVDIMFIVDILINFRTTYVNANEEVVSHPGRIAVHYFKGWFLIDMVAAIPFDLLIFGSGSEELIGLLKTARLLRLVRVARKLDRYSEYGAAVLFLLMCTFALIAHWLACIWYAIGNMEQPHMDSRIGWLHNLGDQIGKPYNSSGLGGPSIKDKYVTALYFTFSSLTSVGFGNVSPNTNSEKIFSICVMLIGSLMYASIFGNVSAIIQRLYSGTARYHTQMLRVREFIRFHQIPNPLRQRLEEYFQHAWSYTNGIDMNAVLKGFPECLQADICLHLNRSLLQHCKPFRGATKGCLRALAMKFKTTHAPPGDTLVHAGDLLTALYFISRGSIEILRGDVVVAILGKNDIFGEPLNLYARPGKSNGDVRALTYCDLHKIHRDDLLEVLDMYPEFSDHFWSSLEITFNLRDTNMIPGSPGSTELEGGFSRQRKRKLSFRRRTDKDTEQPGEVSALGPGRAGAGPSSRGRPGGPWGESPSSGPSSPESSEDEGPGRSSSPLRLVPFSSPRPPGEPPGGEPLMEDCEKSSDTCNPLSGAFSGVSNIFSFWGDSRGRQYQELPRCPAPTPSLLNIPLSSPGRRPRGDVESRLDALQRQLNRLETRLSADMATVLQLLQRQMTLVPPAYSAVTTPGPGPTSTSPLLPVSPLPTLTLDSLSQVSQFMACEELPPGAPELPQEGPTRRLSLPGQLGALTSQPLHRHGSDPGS

CWR22R [33] = assay: Antitumor activity against human 22Rv1 cells xenografted in BALB/c nude mouse assessed as redcution in tumor weight at 10 mg/kg, iv administered once daily for 21 days; format: functional, organism-based; conditions: time 21.0 day
CWR22R [34] = assay: Antitumor activity against human 22Rv1 cells xenografted in BALB/c nude mouse assessed as reduction in AR-v7 level at 10 mg/kg, iv administered once daily for 21 days; format: functional, organism-based; conditions: time 21.0 day
[35] = Toxicity in BALB/c mouse assessed as heart damage at 10 mg/kg, iv administered once daily for 21 days by H and E staining based analysis; format: organism-based; conditions: in vivo, 504 h, time 21 day
[36] = Toxicity in BALB/c mouse assessed as kidney damage at 10 mg/kg, iv administered once daily for 21 days by H and E staining based analysis; format: organism-based; conditions: in vivo, 504 h, time 21 day

SMILES: CC(C)(c1ccc(OCCNc2cccc3c2C(=O)N(C2CCC(=O)NC2=O)C3=O)cc1)c1ccc(OCc2cccc(N3CCOCC3)n2)cc1 (configuration not stated)
- Activity (CWR22R [1]): Active
- Activity [2]: 89.2%
- Activity [3]: 89.6%
- DC50 [4]: 0.18 µM
- Activity ([4]; dose <= 5.0 µM): Dose-dependent-effect
- Activity [5]: Time-dependent-effect
- Activity [6]: Time-dependent-effect
- Activity [7]: Active
- Activity (CWR22R [8]): Dose-dependent-effect
- Activity (CWR22R [9]): Dose-dependent-effect
- Activity [10]: Active
- Activity [11]: Active
- Activity [12]: Active
- Activity [13]: Active
- Activity [14]: Active
- IC50 at 4 days [15]: > 80 µM
- Activity [16]: Active
- inhibition (CWR22R [17]): Dose-dependent-effect
- viability at 0.1 µM (CWR22R [18]): 71%
- Activity (CWR22R [19]): 2.13%
- Activity (CWR22R [20]): 16.93%
- Activity (CWR22R [21]): 41.16%
- Activity (CWR22R [22]): 15.45%
- Activity (CWR22R [23]): 39.88%
- half-life [24]: 18.4 min
- CLint scaled [25]: 40.8 mL/min/kg
- CLint scaled [26]: 43.1 mL/min/kg
- half-life [27]: 37.2 min
- half-life [28]: 158 min
- Cmax [29]: 6440 ng/mL
- MRT last [30]: 32.4 min
- C0 [31]: 13900 ng/mL
- IC50 [32]: > 10 µM
- Activity (CWR22R [33]): Active
- Activity (CWR22R [34]): Active
- Activity [35]: Non-toxic
- Activity [36]: Non-toxic
